Experimental data taken from patent publication US5314913A, “4- or 5-(substituted sulfonyl)methyl-3(2H)-furanones” (American Home Products Corporation, priority 1992, dated 1994).

Assays:
[1] = system: blood glucose levels in diabetic (db/db) mice; assay: Blood glucose lowering in diabetic db/db mice; assay type: in vivo, db/db (C57BL/KsJ) mouse; settings: p.o. by gavage, 4 doses, difference between mean percent change of vehicle and drug treated group; for change in vivo at 100 mg/kg: Mus musculus, po, read-out: Blood Glucose Levels % Change from Vehicle
Experimental: The animals are obese, glucose intolerant and have fasting hyperglycemia which is sometimes accompanied by a paradoxical hyperinsulinemia.
On the morning of Day 1, 12-15 mice [male db/db (C57BLKsJ), Jackson Laboratories, 2 to 7 months of age and body weight 35 to 60 g] were fasted for 4 hours, weighed and a baseline blood sample was collected from the tail-tip of each mouse without anesthesia, placed directly into a fluoride-containing tube, mixed and maintained on ice. Food was then returned to the mice. The plasma was separated and levels of glucose in plasma determined by the Abbott VP Analyzer. Because of the variable plasma glucose levels of the db/db mice, the mice were randomly assigned into 3-5 groups (4-5 mice per group) of equivalent mean plasma glucose levels:
On the afternoon of Days 1, 2 and 3 the vehicle, control or test drugs were administered (p.o.) to the ad libitum fed mice. The positive control, ciglitazone [(±)-5-[4-[(1-methylcyclohexyl]benzyl]-thiazolidine-2,4-dione] see Fujita et al. Diabetes, 32, 804 (1983), was given by gavage at a dose of 100 mg/kg/day. The test compounds were given by gavage at a dose of 100 mg/kg/day. The fourth and final dose was administered on the morning of day 4, after the mice had been fasted for 18 h. A blood sample was collected immediately preceeding the last dose, followed by samples collected at 90 and 120 min after drug administration. Insulin is immediately administered to each mouse after the 120 min sample. Serial blood samples were collected at 45 and 120 min after administration. The plasma was separated and the levels of glucose in plasma determined by the Abbot VP analyzer.
Analysis of variance followed by Dunnett's multiple comparison (one-sided) was used to estimate the degree of statistical significance of the difference between the vehicle control group and the individual drug-treated groups. A drug was considered active, at the specific dose administered, if the difference of the plasma glucose level has a p<0.10.
The actual difference between the mean percent change of blood glucose levels of the vehicle and the drug treated group is reported in Table 1.

cholesterol absorption = assay: Cholesterol absorption in normal rats (oral [14C] cholesterol, serum radioactivity); assay type: in vivo; settings: serum radioactivity at 6 hr
Experimental: Cholesterol absorption was measured in normal rats following simultaneous oral doses of the test compounds and radioactive cholesterol according to the method of Cayen and Dvornik except that [^14 C] cholesterol in propylene glycol and olive oil (vehicle for test compound) were used. Serum radioactivity was measured at 6 hr [Cayen, M. N. and Dvornik, D., J. Lipid Res., 20, 162 (1979)].

[2] = system: gastric mucosal lesions produced by ethanol; assay: Ethanol induced cytotoxicity in rats (gastric mucosal lesions); assay type: in vivo, Male Sprague-Dawley rats; settings: Rattus norvegicus, oral, 1 hour prior to ethanol, read-out: % Inhibition (of lesion formation)
Experimental: The purpose of this assay is to evaluate the effectiveness of the compounds of the present invention in preventing the formation of gastric mucosal lesions produced by ethanol. The assay is based on A. Robert, et al: Gastroenterology, 77: 433-443, 1979.
Male Sprague-Dawley rats weighing between 120-150 grams were fasted for 24 hours prior to the experiment (water ad libitum). At least two hours before dosing, the animals were placed in individual cages with wire grid bottoms and denied access to water.
Ethanol was administered orally at 1 mL per animal. The compounds of the present invention were dissolved in water or suspended in water with 0.5% carboxymethylcullulose and administered orally at a dose based on an appropriate standard giving ED50 to ED75 response of cytoprotective activity.
The rats were randomly divided into groups of equal number, ordinarily 10 to a group. The rats were weighed and the individual weights were recorded. Exactly 1 hour prior to the administration of ethanol, the screening group was treated with the compounds of the present invention, and the control group with the vehicle. One hour after administering the ethanol the animals were sacrificed by cervical dislocation. The stomachs were removed, cut along the greater curvature and cleansed of all debris with tap water. The stomachs were set aside and kept moist with saline until the lesions were scored.
Macroscopic lesions on the gastric mucosa were numerically graded. The final grade assigned a stomach was the sum of all the grades.
Streaks longer than 6 mm are graded in multiples of 2 mm.
The degree of cytotoxicity occurring in each group is represented as the mean± S.E.M.
The mean of each treatment group was compared to the control group and expressed as the % inhibition of lesion formation.

## CC1(COc2ccc(CC3SC(=O)NC3=O)cc2)CCCCC1 (racemic) [Ciglitazaone, (±)-5-[4-[(1-methylcyclohexyl]benzyl]-thiazolidine-2,4-dione, reference compound]
[1]
  change in vivo at 100 mg/kg: -50 to -24%

## CC1(C)OC=C(CS(=O)(=O)c2ccccc2)C1=O [Example 1, 2,2-Dimethyl-4-(phenylsulfonyl)methyl-3(2H)-furanone]
[1]
  change in vivo at 100 mg/kg: -30%
Cholesterol absorption; 100 mg/kg
  decrease in cholesterol absorption: 79%

## CC1(C)OC=C(CS(=O)(=O)c2cccc3ccccc23)C1=O [Example 2, 2,2-Dimethyl-4-[(1-naphthalenyl)sulfonyl]methyl-3(2H)-furanone]
[1]
  change in vivo at 100 mg/kg: -21%

## COc1ccccc1S(=O)(=O)CC1=COC(C)(C)C1=O [Example 3, 4-[(2-Methoxyphenyl)sulfonyl]methyl-2,2-dimethyl-3(2H)-furanone]
[1]
  change in vivo at 100 mg/kg: -21%

## CC1(C)OC=C(CS(=O)(=O)c2ccc([N+](=O)[O-])cc2)C1=O [Example 4, 2,2-Dimethyl-4-[(4-nitrophenyl)sulfonyl]methyl-3(2H)-furanone]
[1]
  change in vivo at 100 mg/kg: -30%

## O=C1C(CS(=O)(=O)c2ccccc2)=COC12CCCCC2 [Example 6]
[1]
  change in vivo at 100 mg/kg: -25%

## CC1(C)OC(CS(=O)(=O)c2ccccc2)=CC1=O [Example 7, 2,2-Dimethyl-5-(phenylsulfonyl)methyl-3(2H)-furanone]
[1]
  change in vivo at 100 mg/kg: -38%
Cholesterol absorption; 250 mg/kg
  decrease in cholesterol absorption: 58%

## CC1(C)OC(C(C)(C)S(=O)(=O)c2ccccc2)=CC1=O [Example 8, 2,2-Dimethyl-5-[1-methyl-1-(phenylsulfonyl)ethyl]-3(2H)-furanone]
[1]
  change in vivo at 100 mg/kg: -42%

## CC1(C)OC(C2(S(=O)(=O)c3ccccc3)CCCC2)=CC1=O [Example 9, 2,2-Dimethyl-5-[1-(phenylsulfonyl)-1-cyclopentyl]-3(2H)-furanone]
[1]
  change in vivo at 100 mg/kg: -25%

## CC1(c2ccccc2)OC(CS(=O)(=O)c2ccccc2)=CC1=O (stereo not drawn) [Example 10, 2-Methyl-2-phenyl-5-(phenylsulfonyl)methyl-3(2H)-furanone]
[1]
  change in vivo at 100 mg/kg: -19%
Cholesterol absorption; 250 mg/kg
  decrease in cholesterol absorption: 35%

## CC1(C)OC(CS(=O)(=O)c2ccc(Cl)cc2)=CC1=O [Example 11, 5-[(4-Chlorophenyl)sulfonyl]methyl-2,2-dimethyl-3(2H)-furanone]
[2]
  inhibition in vivo at 25 mg/kg: 44%

## CC1(C)OC(CS(=O)(=O)c2ccc(F)cc2)=CC1=O [Example 12, 5-[(4-Fluorophenyl)sulfonyl]methyl-2,2-dimethyl-3(2H)-furanone]
[2]
  inhibition in vivo at 25 mg/kg: 6%

## CC1(C)OC(CS(C)(=O)=O)=CC1=O [Example 13, 2,2-Dimethyl-5-(methylsulfonyl)methyl-3(2H)-furanone]
[2]
  inhibition in vivo at 25 mg/kg: 54%

## CC1(C)OC(CS(=O)(=O)c2ccc(C(C)(C)C)cc2)=CC1=O [Example 14, 2,2-Dimethyl-5-[[4-(1,1-dimethylethyl)phenyl]sulfonyl]methyl-3(2H)-furanone]
[2]
  inhibition in vivo at 25 mg/kg: 43%

## CC1(C)OC=C(CS(=O)(=O)c2ccc(F)cc2)C1=O [Example 15, 4-[(4-Fluorophenyl)sulfonyl]methyl-2,2-dimethyl-3(2H)-furanone]
[2]
  inhibition in vivo at 25 mg/kg: 42%

## CC1(C)OC=C(CS(=O)(=O)c2ccc(C(C)(C)C)cc2)C1=O [Example 16, 2,2-Dimethyl-4-[[4-(1,1-dimethylethyl)phenyl]sulfonyl]methyl-3(2H)-furanone]
[2]
  inhibition in vivo at 25 mg/kg: 30%

## CC1(C)OC=C(CS(=O)(=O)C(C)(C)C)C1=O [Example 17, 4-[(1,1-Dimethylethyl)sulfonyl]methyl-2,2-dimethyl-3(2H)-furanone]
[2]
  inhibition in vivo at 25 mg/kg: 87%

## CC1(c2ccc(F)cc2)OC=C(CS(=O)(=O)C(C)(C)C)C1=O (stereo not drawn) [Example 18, 4-[(1,1-Dimethylethyl)sulfonyl]methyl-2-(4-fluorophenyl)-2-methyl-3(2H)-furanone]
[2]
  inhibition in vivo at 10 mg/kg: 80%

## CC1(c2ccc(Cl)cc2)OC=C(CS(=O)(=O)C(C)(C)C)C1=O (stereo not drawn) [Example 19, 4-[(1,1-Dimethylethyl)sulfonyl]methyl-2-(4-chlorophenyl)-2-methyl-3(2H)-furanone]
[2]
  inhibition in vivo at 10 mg/kg: 45%

## CC1(c2ccccc2)OC=C(CS(=O)(=O)C(C)(C)C)C1=O (stereo not drawn) [Example 20, 4-[(1,1-Dimethylethyl)sulfonyl]methyl-2-methyl-2-phenyl-3(2H)-furanone]
[2]
  inhibition in vivo at 25 mg/kg: 76%

## N-[[(4,5-Dihydro-5,5-dimethyl-4-oxo-3-furanyl)methyl]sulfonyl]phenylacetamide [Example 5]
[1]; 100 (mg/kg)
  Blood Glucose Levels % Change from Vehicle: -23%
